Assay [1] has as its system PC-3 cells. Nature of the assay: In situ tubulin assay (immunofluorescence microscopy). The assay is classed as cell-based, human. The settings on record: 18 to 24 h. The protocol:
The organization and formation of microtubule were detected by immunofluorescence microscopic examination in PC-3 cells.
PC-3 cells were seeded in 8-well chamber slides and incubated with a vehicle (0.1% DMSO, control), Compound 55 (10 μM), taxol (0.1 μM), or vincristine (0.1 μM) for 18 to 24 h. Then, the cells were fixed with 100% methanol at −20° C. for 5 min and incubated in 1% bovine serum albumin (BSA) containing 0.1% Triton X-100 at 37° C. for 30 min. Cells were then washed twice with PBS for 5 min and stained with primary antibody specific to β-tubulin at 37° C. for 1 h. Afterwards, FITC-labeled secondary antibodies were used (staining performed at 37° C. for 40 min, green fluorescence) and the protein was detected using a confocal laser microscopic system (Leica TCS SP2). The nuclei were visible by DAPI staining (1 mg/mL DAPI, blue fluorescence).

Assay [2] relates to PC-3 cells. Nature of the assay: Western blot of Bcl-2 family proteins, caspases and PARP. The format is cell-based, human. The settings on record: 10 μM, 0 hr to 36 hrs. As for the experimental part: Effect of benzimidazole compounds on inducing apoptosis was evaluated by testing their effect on the expression/activation of Bcl-2 family member proteins, caspases, and c-Jun N-terminal kinase (JNK). Bcl-2 family of proteins is the most important regulators of mitochondria-involved apoptotic cell death. The pro-apoptotic members, Bax, Bak and Bad, are required for the disruption of mitochondria; whereas the anti-apoptotic Bcl-2, Bcl-xL and Mcl-1 can prevent apoptosis by antagonizing the pro-apoptotic members.
PC-3 cells were incubated with a vehicle (0.1% DMSO) or Compound 55 (10 μM) for 0 hr, 6 hrs, 12 hrs, 18 hrs, 24 hrs, and 36 hrs. Then, the cells were harvested and lysed for the detection of protein expression with specific antibodies by western blot analysis. For Western blotting, the proteins (40 μg) in the lysis (including Phospho-Bcl-2, Bcl-2, Phospho-Bcl-xL, Bcl-xL, Mcl-1, Bax, Bak, Bad, GAPDH, cleaved Bad, Caspase-9, cleaved Caspase-9, Caspase-3, cleaved Caspase-3, poly-(ADP-ribose) polymerase (PARP), cleaved PARP, and GAPDH) were separated by electrophoresis in a 10 to 15% polyacrylamide gel, transferred to a nitrocellulose membrane and immuno-reacted with specific antibodies.

Assay [3] deals with human non-small cell lung cancer A549 cells. Nature of the assay: SRB assay, A549 cells. The format is cell-based. The settings on record: SRB growth inhibition, 48 hrs or 72 hrs. The protocol:
(§1) NCI/ADR-RES cell line was obtained from DTP Human Tumor Cell Line Screen (Developmental Therapeutics Program, NCI). Other cancer cell lines (A549, Hep G2, Hep 3B, DU-145, LNCaP, and PC-3) were obtained from American Type Culture Collection (Rockville, Md.). These cancer cells were cultured in RPMI1640 medium with 10% (v/v) fetal bovine serum (FBS) and penicillin (100 units/mL)/streptomycin (100 μg/mL). Cultures were maintained in a humidified incubator at 37° C. in 5% CO2/95% air.
(§2) Cells were seeded in 96-well plates in medium with 5% FBS for 24 hrs. They were then further incubated with a vehicle (0.1% DMSO) as control or a test compound for 48 hrs or 72 hrs. The control- or compound-treated cells were fixed with 10% TCA and stained with SRB at 0.4% (w/v) in 1% acetic acid. Unbound SRB was washed off by 1% acetic acid and SRB-bound cells were solubilized with 10 mM Trizma base.
(§3) Using an absorbance (515 nm) measurement, the amounts of cellular proteins indicating cell numbers at time zero (T0), in control (C), and in the presence of the test compound (Tx) were obtained. The percentage growth was calculated at each of the compound concentration levels. Percentage growth inhibition was calculated as: 100−[(Tx−T0)/(C−T0)]×100. […]
Background: Sulforhodamine B stains cellular protein and so reports cell mass.

Assay [4] deals with PC-3 cells. Nature of the assay: FACScan flow cytometric analysis of cell cycle. The assay is classed as cell-based, human. The settings on record: 1 μM, 3 μM, and 10 μM, 0 hr to 48 hrs. The protocol: PC-3 cells were treated with Compound 55 (at different concentrations: 1 μM, 3 μM, and 10 μM) for 0 hr, 6 hrs, 12 hrs, 18 hrs, 24 hrs, 36 hrs, and 48 hrs. After treatment, cells were washed twice with ice-cold PBS, collected by centrifugation and fixed in 70% (v/v) ethanol at 4° C. for 30 min. Then, cells were treated with 0.2 ml of a buffer (containing 0.2 M Na2HPO4 and 0.1 M citric acid buffer, pH 7.8) for 30 min, centrifuged, and then incubated in 1 mL propidium iodide (PI) staining buffer (0.1% Triton X-100, 100 μg/mL RNase A, 80 μg/mL propidium iodide in PBS) at 37° C. for 30 min. Cells were detected using a cytofluorometer, and analyzed by FACScan and CellQuest program (Becton Dickinson).
For orientation: Flow cytometry measures light scatter and fluorescence of single cells or particles in a stream.

The test system of a further assay is LNCaP cells. Nature of the assay: SRB assay, LNCaP cells. The format is cell-based. Particulars: Homo sapiens, SRB growth inhibition, 48 hrs or 72 hrs. As for the experimental part:
as §1, §2, §3

Assay [5] deals with prostate cancer PC-3 cells. Nature of the assay: SRB assay, PC-3 cells. The format is cell-based. Particulars: Homo sapiens, SRB growth inhibition, 48 hrs or 72 hrs. As for the experimental part: as §1, §2, §3
For assay [6], the system named is P-glycoprotein (P-gp)-rich breast cancer NCI/ADR-RES cells. Nature of the assay: SRB assay, NCI/ADR-RES cells. The settings on record: Homo sapiens, SRB growth inhibition, 48 hrs or 72 hrs. The format is cell-based. As for the experimental part: as §1, §2, §3
A further assay deals with DU-145 cells. Nature of the assay: SRB assay, DU-145 cells. The format is cell-based. The settings on record: Homo sapiens, SRB growth inhibition, 48 hrs or 72 hrs. The protocol: as §1, §2, §3
Assay [7] concerns hepatocellular carcinoma Hep3B cells. Nature of the assay: SRB assay, Hep3B cells. Particulars: Homo sapiens, SRB growth inhibition, 48 hrs or 72 hrs. The format is cell-based. As for the experimental part:
as §1, §2, §3

For a further assay, the system named is Tubulin proteins. Nature of the assay: In vitro tubulin turbidity assay. The format is biochemical. Particulars: 37° C., 60 min. The protocol:
Effects of the benzimidazole compounds on tubulin polymerization were detected using CytoDYNAMIX Screen 03 kit (Cytoskeleton, Inc., Denver, Colo.).
Tubulin proteins (>99% purity) were suspended in G-PEM buffer containing 80 mM PIPES, 2 mM MgCl2, 0.5 mM EDTA, and 1.0 mM GTP (pH 6.9) and 5% glycerol with or without a test compound. Then, the mixture was transferred to a 96-well plate and the absorbance was measured at 340 nm (37° C.) for 60 min (SpectraMAX Plus, Molecular Devices Inc., Sunnyvale, Calif.).
Level of tubulin polymerization was determined by examining turbidity of the tubulin suspension. Absorbance of the suspension at 340 nm was plotted as a function of time. Accordingly, the velocity and magnitude of tubulin polymerization were determined.

In assay [8] the test system is PC-3 cells. Nature of the assay: Western blotting of Ras, Raf-1, MEK. The assay is classed as cell-based, human. The settings on record: 10 μM. As for the experimental part:
(§4) PC-3 cells were incubated with a vehicle (0.1% DMSO) as control or Coumpound 55 (10 μM) for 30 min, 45 min, 60 min, and 120 min for testing Ras; or for 6 hrs, 12 hrs, 18 hrs, and 24 hrs for testing Raf-1, Phospho-MEK, MEK, and GAPDH. After the treatment, cells were washed twice with ice-cold PBS and then lysed with 100 μL lysis buffer (20 mM Tris, pH 7.5, 1 mM MgCl2, 125 mM NaCl, 1% Triton X-100, 1 mM phenylmethylsulphonylfluoride, 10 μg/mL leupeptin, 10 μg/mL aprotinin, 25 mM β-glycerophosphate, 50 mM NaF, and 100 μM sodium orthovanadate). Then, the expressions of the above proteins were detected by Western blotting.

Assay [9] deals with PC-3 cells. Nature of the assay: Western blot analysis of cell-cycle regulators. The format is cell-based, human. The settings on record: 10 μM. As for the experimental part:
as §4
The cell-cycle regulators were also examined by Western blot analysis. Proteins in the lysis (40 μg) were separated by electrophoresis in a 10 or 15% polyacrylamide gel, transferred to a nitrocellulose membrane and immuno-reacted with respective antibodies against Cyclin E, Cyclin A, Cyclin B1, Cdk1, Cdk2, p27, MPM2, and GAPDH.
(In general: Immunoblotting shows a protein as a band on a membrane.)

Assay [10] concerns hepatocellular carcinoma HepG2 cells. Nature of the assay: SRB assay, HepG2 cells. The format is cell-based. The settings on record: Homo sapiens, SRB growth inhibition, 48 hrs or 72 hrs. As for the experimental part:
as §1, §2, §3

In the case of `CC[C@]1(O)C[C@H]2CN(CCc3c([nH]c4ccccc34)[C@@](C(=O)OC)(c3cc4c(cc3OC)N(C=O)[C@H]3[C@@](O)(C(=O)OC)[C@H](OC(C)=O)[C@]5(CC)C=CCN6CC[C@]43[C@@H]65)C2)C1` [vincristine], the “spindle and nuclei morphology (in situ labeling of tubulin and chromosomes)” value (shortened to “spindle and nuclei morphology”) in the assay on PC-3 cells [1] (0.1 μM) is “multi-polar spindles and chromosome condensation were observed”.
As for `CC(=O)O[C@H]1C(=O)[C@@]2(C)[C@H]([C@H](OC(=O)c3ccccc3)[C@]3(O)C[C@H](OC(=O)[C@H](O)[C@@H](NC(=O)c4ccccc4)c4ccccc4)C(C)=C1C3(C)C)[C@]1(OC(C)=O)CO[C@@H]1C[C@@H]2O` [taxol], in the assay on PC-3 cells [1] (0.1 μM), the “spindle and nuclei morphology” value is “multi-polar spindles and multiple nuclei were formed”.
A word on the IC50: it is the midpoint of a concentration-inhibition curve. Regarding `COc1cc(Cn2c(-c3ccccc3)nc3cc(N4CCCC4)ccc32)cc(OC)c1OC` [Compound 55, 2-phenyl-5-(pyrrolidin-1-yl)-1-(3,4,5-trimethoxybenzyl)-1H-benzo[d]imidazole], in the assay with PC-3 cells [2], the “Bcl-2 phosphorylation and degradation” value is “induced the phosphorylation and degradation”; the “Bcl-xL phosphorylation and degradation” value is “induced the phosphorylation and degradation”; the Mcl-1 expression result is on record as “decrease”; the PARP cleavage result is reported as “cleaved to produce catalytically active fragments”. In addition, in the assay on PC-3 cells [2], the caspase-3 cleavage result is recorded as “cleaved to produce catalytically active fragments”, the caspase-9 cleavage entry was “cleaved to produce catalytically active fragments” and the “cleavage of pro-apoptotic Bad” value is recorded as “cleavage of pro-apoptotic Bad into 15-kDa fragments was unexpectedly induced”. The IC50 in [3] came to 2400 nM. In the assay with PC-3 cells [4], the “cell population at G2/M phase” value is listed as “induced an increase” and the “hypodiploid (sub-G1, apoptosis) population of the cell cycle” value is on record as “subsequent increase”. In addition, the midpoint of inhibition in the assay with LNCaP cells, the IC50, lay at 1700 nM. In addition, the IC50 in assay [5] is 2300 nM. In assay [6], this compound gave an IC50 of 3700 nM. For the same compound, the IC50 in the assay with DU-145 cells came to 2300 nM. Also, the midpoint of inhibition in assay [7], the IC50, lay at 2400 nM. Besides, the “tubulin polymerization (turbidity, absorbance at 340 nm)” value in the assay on Tubulin proteins is “inhibited tubulin polymerization in a dose-dependent manner”. Also, in the assay with PC-3 cells [8] (30 min to 120 min), the Ras expression result was “upregulated”. In the assay on PC-3 cells [8] (6 hrs to 24 hrs), the MEK expression result is “upregulated” and the Raf-1 expression result was “upregulated”. Further, the “spindle and nuclei morphology” value in the assay with PC-3 cells [1] (10 μM) is given as “mono-polar”. Also, in the assay on PC-3 cells [9], the “cyclin A expression” value is “downregulated”, the “cyclin B1 expression” value was “upregulated”, the “cyclin E expression” value is “downregulated” and the “expression of p27 (a Cdk inhibitor)” value was “decreased”. In [10], the IC50 came out at 3300 nM.

(Values after patent US8501957B2, “Benzimidazole compounds and their use as anticancer agents” (China Medical University, priority 2008, dated 2013).)
